How the values were obtained:
AmelOBP2 [1] = target: T1, AmelOBP2 (Apis mellifera, UniProt A0A8U0WQ64); test: Fluorescence competitive binding assay with 1-NPN as probe; set-up: species or system Apis mellifera ligustica; conditions: for Ki: Ki = [IC50]/(1 + [1-NPN]/K1-NPN), read-out: Ki (binding constant); for IC50: odor standard concentration at which AmelOBP2/1-NPN fluorescence is reduced to half; for binding ability to AmelOBP2 (in words): fluorescence competitive binding
Procedure: The binding ability of the recombinant protein AmelOBP2 to the 14 tomato and 25 melon floral volatiles was determined using a fluorescence competitive binding assay. The IC50 values of the odor standard compounds obtained from the fluorescence competitive binding curve (Figure 6) and the binding constant Ki between AmelOBP2 and the odor standard compounds are shown in Table 1.
(§1) The ability of AmelOBP2 to bind to floral volatiles in tomato and melon greenhouses was determined using an RF-5301PC fluorescence spectrophotometer (Shimadzu, Japan) with […] (1-NPN) (TCI, Japan) as the fluorescence probe (Table A5). The parameters of the RF-5301PC fluorescence spectrophotometer are set as follows: the emission wavelength range is 360–500 nm, the excitation wavelength is 337 nm, and the slit width is 3 nm. This process was similar to that described by Du et al.. Data were processed using GraphPad Prism 8.0. The binding constant (Ki) of AmelOBP2 and odor volatiles were computed using the following equation [26]:Ki = [IC50]/(1 + [1-NPN]/K1-NPN)
IC50 refers to the concentration of the odorant at which the fluorescence intensity of the AmelOBP2/1-NPN complex was reduced by 50%. 1-NPN refers to the concentration of unbound 1-NPN, while K1-NPN refers to the binding constant of the AmelOBP2/1-NPN complex. The smaller the Ki, the stronger the binding ability of the substance to the recombinant protein. Ki values ranging from 0 to 5µM indicate strong binding ability with AmelOBP2.

AmelOBP2 [2] = target: T1, AmelOBP2; test: Binding curve and Scatchard plot of fluorescence probe 1-NPN to recombinant AmelOBP2; set-up: species or system Apis mellifera ligustica; conditions: Scatchard plot; excitation 337 nm, emission maximum 405 nm; read-out: binding constant between AmelOBP2 and the probe
Procedure: At an excitation wavelength of 337 nm, no clear fluorescence signal was observed from the AmelOBP2 protein working solution. By adding 3 μL of the 1-NPN solution to the protein working solution successively, the maximum fluorescence intensity was found at 405 nm, and the fluorescence intensity increased with the increase in the probe concentration. The resulting data were then fitted using regression and Scatchard processing to produce a combination curve and linear equation for AmelOBP2 and 1-NPN (Figure 5).
as §1

[3] = system: Apis mellifera ligustica antennae; test: Electroantennogram (EAG) response to compounds under RNAi silencing; type: in vivo; set-up: concentration or dose not given beside the values; conditions: decrease of EAG response in honeybees fed siAmelOBP2
Excerpt: To clarify the physiological function of amelobp2 in the detection of floral volatiles in honeybees, we selected the following five volatiles: e-2-hexenal, e-2-octenal, 1-nonanal, 2-methyl-5-(1-methyl ethenyl)-cyclohexanone, and methyl benzene. Specifically, e-2-hexenal and e-2-octenal are volatiles of melon flowers; 2-methyl-5-(1-methyl ethenyl)-cyclohexanone and methyl benzene are volatiles of tomato flowers; and 1-nonanal is both a melon flower volatile and a tomato flower volatile. The antennal electrical activity of the honeybees was measured after feeding with siAmelOBP2.
Based on the results of the fluorescence competitive binding tests and our previous research involving EAG tests, odor-standard compounds were identified for testing (Table A5). The optimal siRNA and silencing time were determined by an experiment and fed to honeybees. The EAG response was measured using an EAG insect antennal potential measurement system (Syntech, Netherlands). Each measurement was repeated using three antennae. The results of the antennal potential measurements were expressed as the EAG relative response value (rEAG), which was calculated as follows:rEAG = (EAG (X) − EAG (std))/EAG (std)(1)
EAG (X) represents the response amplitude (mV) of the EAG to a given compound, while EAG (std) represents the response amplitude (mV) of the EAG to the reference liquid paraffin at each recording stage.

AmelOBP2 mRNA = test: RNAi silencing effect on AmelOBP2 mRNA after siRNA feeding (qRT-PCR); type: in vivo, Apis mellifera ligustica; conditions: 8 μg per bee, 20-d-old honeybees
Procedure: Total RNA and cDNA were obtained according to Du et al.. The obtained cDNA was subjected to qRT-PCR using the SYBR fluorescent dye method (Takara, Japan) (Table A1). The primers were synthesized by Sangon Biotech (Table A2). Data processing refers to Livak and Schmittgen (2^−ΔΔCt method).
Honeybees were collected at 20 d of age from an apiary at the College of Animal Science, Shanxi Agricultural University. Honeybees were randomly divided into 4 groups (n = 40) and starved in an incubator for 30 min (65–70% relative humidity; 28 ± 1 °C). Honeybees were fed with siAmelOBP2 (8 μg per bee dissolved in sucrose solution); the siAmelOBP2 are recorded as siAmelOBP2-1 (79 bp) and siAmelOBP2-2 (329 bp). We used siNC and 30% sucrose solution as the controls. After feeding, the honeybees were placed back in the incubator. At 24, 48, 72, and 96 h, the honeybees were captured randomly in each group, and the silencing effect of RNAi was assessed using qRT-PCR.

T1 sequence (A0A8U0WQ64 entry or part of it): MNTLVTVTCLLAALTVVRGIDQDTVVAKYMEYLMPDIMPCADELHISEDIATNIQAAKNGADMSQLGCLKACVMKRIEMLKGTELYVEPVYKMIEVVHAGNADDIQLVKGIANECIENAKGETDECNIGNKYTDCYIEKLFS

Molecule | Ki (AmelOBP2 [1]) | IC50 (AmelOBP2 [1]) | also measured
CC=Cc1ccc(OC)c(OC)c1 [1,2-dimethoxy-4-(1-propenyl)-benzene] | 7.68 µM | 17.2 µM | 
CC(C)(C)c1cccc(C(C)(C)C)c1 [1,3-bis (1,1-dimethyl ethyl)-benzene] | 2.85 µM | 6.37 µM | 
Cc1cccc(C)c1 [1,3-dimethyl-benzene] | 11 µM | 24.6 µM | 
c1ccc(Nc2cccc3ccccc23)cc1 [1-NPN] |  |  | Kd (AmelOBP2 [2]): 2 µM
C=C(C)c1ccc(C)cc1 [1-methyl-4-(1-methylethenyl)-benzene] | 6.23 µM | 13.9 µM | 
CCCCCCCCC=O [1-nonanal] | 5.26 µM | 11.8 µM | Silencing Efficiency (EAG response) [3]: 37.28%
CC(C)C(=O)OCC(C)(C)C(OC(=O)C(C)C)C(C)C (centres unmarked) [2,2,4-trimethyl-1,3-pentanediol diisobutyrate] | 4.92 µM | 11 µM | 
Cc1ccc(C)c(C=O)c1 [2,5-dimethyl-benzaldehyde] | 7.12 µM | 15.9 µM | 
C=C(C)C1CCC(C)C(=O)C1 (centres unmarked) [2-methyl-5-(1-methylethenyl)-cyclohexanone] | 6.03 µM | 13.5 µM | Silencing Efficiency (EAG response) [3]: 32.48%
C=CC(C)(O)CCC=C(C)C (centres unmarked) [3,7-dimethyl-1,6-octadien-3-ol] | 7.01 µM | 15.7 µM | 
CC1=CC(=O)C(C(C)C)CC1 (centres unmarked) [3-methyl-6-(1-methylethyl)-2-cyclohexen-1-one] | 11.2 µM | 25 µM | 
CCCCCC=CC(C)=O [3-nonen-2-one] | 4.3 µM | 9.63 µM | 
O=CC=Cc1ccccc1 [3-phenyl-2-propenal] | 5.69 µM | 12.7 µM | 
C=CC(=C)CCCC(=C)C [alpha-myrcene] | 2.76 µM | 6.18 µM | 
O=Cc1ccccc1 [benzaldehyde] | 3.74 µM | 8.37 µM | 
O=CCc1ccccc1 [benzeneacetaldehyde] | 4.55 µM | 10.2 µM | 
O=CCCc1ccccc1 [benzenepropanal] | 7.3 µM | 16.3 µM | 
CCCCCCCCCC=O [decanal] | 3.72 µM | 8.32 µM | 
COC(=O)c1ccccc1C(=O)OC [dimethyl phthalate] | 5.54 µM | 12.4 µM | 
CCCCCCCCCCCC=O [dodecanal] | 1.05 µM | 2.35 µM | 
CCCCCCC/C=C/C=O [e-2-decenal] | 2.42 µM | 5.41 µM | 

Molecule | Ki (AmelOBP2 [1]) | IC50 (AmelOBP2 [1]) | also measured
CCC/C=C/C=O [e-2-hexenal] | 2.83 µM | 6.33 µM | Silencing Efficiency (EAG response) [3]: 34.64%
CCCCC/C=C/C=O [e-2-octenal] | 7.45 µM | 16.7 µM | Silencing Efficiency (EAG response) [3]: 55.20%
CC1=CCC(C(C)C)=CC1 [gamma-terpinene] | 4.16 µM | 9.31 µM | 
CCCCCCCCCCCCCCCCCCCCC [heneicosane] | 21.7 µM | 48.6 µM | binding ability to AmelOBP2 (in words) (AmelOBP2 [1]): relatively weak binding ability
CCCCCCCCCCCCCCCCC [heptadecane] | 16.7 µM | 37.3 µM | 
CCCCCCCCCCCCCCCC [hexadecane] | 30.6 µM | 68.6 µM | binding ability to AmelOBP2 (in words) (AmelOBP2 [1]): relatively weak binding ability
CCCCCCCCCCCCCCCC(=O)OCC [hexadecanoic acid, ethyl ester] | 12.8 µM | 28.8 µM | binding ability to AmelOBP2 (in words) (AmelOBP2 [1]): exhibited binding ability
Cc1ccccc1 [methyl benzene] | 8.3 µM | 18.6 µM | Silencing Efficiency (EAG response) [3]: 28.76%
CCCCCCCCCCCCCCCC(=O)OC [methyl palmitate] |  |  | binding ability to AmelOBP2 (in words) (AmelOBP2 [1]): exhibited binding ability
CCCCCCCCCCCCCCCCCCC [nonadecane] | 14.7 µM | 33 µM | 
Cc1ccc(C(C)C)cc1 [p-cymene] | 3.58 µM | 8.02 µM | 
CCCCCCCCCCCCCCCCCCCCCCCC [tetracosane] | 13.2 µM | 29.6 µM | 
CCCCCCCCCCCCCC [tetradecane] | 8.06 µM | 18 µM | 
CC(=O)/C=C/C1=C(C)CCCC1(C)C [trans-β-ionone] | 4.21 µM | 9.43 µM | 
C=C1CC/C=C(\C)CC[C@@H]2[C@@H]1CC2(C)C [β-caryophyllene] | 4.84 µM | 10.8 µM | 
C=C/C(C)=C/CC=C(C)C [β-ocimene] | 3.75 µM | 8.4 µM | 
hexadecenoic acid | 5.29 µM | 11.8 µM | 
phytol | 16.2 µM | 36.3 µM | 
siAmelOBP2-1: siRNA against AmelOBP2 (79 bp); F: GCAAAGUACAUGGAGUAUUTT, R: AAUACUCCAUGUACUUUGCTT (chemistry not given here) |  |  | silencing efficiency (AmelOBP2 mRNA) (AmelOBP2 mRNA; 72 h after siRNA feeding): 62.86%
siAmelOBP2-2: siRNA against AmelOBP2 (329 bp); F: GGAUCGCGAAUGAGUGCAUTT, R: AUGCACUCAUUCGCGAUCCTT (chemistry not given here) |  |  | silencing efficiency (AmelOBP2 mRNA) (AmelOBP2 mRNA; 24 h after siRNA feeding): 58.87%; silencing efficiency (AmelOBP2 mRNA) (AmelOBP2 mRNA; 48 h after siRNA feeding): 47.35%; silencing efficiency (AmelOBP2 mRNA) (AmelOBP2 mRNA; 72 h after siRNA feeding): 79.83%; silencing efficiency (AmelOBP2 mRNA) (AmelOBP2 mRNA; 96 h after siRNA feeding): 67.19%

Reference: PMC11989179, “Odor-Binding Protein 2 in Apis mellifera ligustica Plays Important Roles in the Response to Floral Volatiles Stimuli from Melon and Tomato Flowers” (International Journal of Molecular Sciences, 2025)
